In patent EP2361243B9 (Virobay, Inc., priority 2008, dated 2010):

Legend:
Assay type in all cases: biochemical
[1] = target: CATV (Homo sapiens, UniProt O60911); assay: Cathepsin V inhibition (CATV Ki, no method described)
[2] = target: T1, Human cathepsin F (Homo sapiens, UniProt Q9UBX1); assay: Cathepsin F Assay; settings: apparent inhibition constant; substrate Z-Phe-Arg-AMC, pH 6.5, 30 min incubation at room temperature; read-out: CATF (Ki)
T1 sequence (Q9UBX1 271-484): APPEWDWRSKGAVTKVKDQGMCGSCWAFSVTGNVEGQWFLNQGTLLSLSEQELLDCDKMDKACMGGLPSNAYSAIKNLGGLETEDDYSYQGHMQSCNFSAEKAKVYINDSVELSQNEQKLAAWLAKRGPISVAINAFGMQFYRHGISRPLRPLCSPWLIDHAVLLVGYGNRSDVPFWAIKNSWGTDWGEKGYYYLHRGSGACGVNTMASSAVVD
Protocol: (§1) Solutions of test compounds in varying concentrations were prepared in 10 µL of dimethyl sulfoxide (DMSO) and then diluted into assay buffer (40 µL, comprising: MES, 50 mM (pH 6.5); EDTA, 2.5 mM; and NaCl, 100 mM); DTT, 2.5 mM; and BSA, 0.01 %. Human cathepsin F (0.1 pMoles in 25 µL of assay buffer) was added to the dilutions. The assay solutions were mixed for 5-10 seconds on a shaker plate, covered and incubated for 30 min at room temperature. Z-Phe-Arg-AMC (2 nMoles in 25 µL of assay buffer containing 10% DMSO) was added to the assay solutions and hydrolysis was followed spectrophotometrically (at λ 460 nm) for 5 min. Apparent inhibition constants (Ki) were calculated from the enzyme progress curves using standard mathematical models.

[3] = target: Human cathepsin S (Homo sapiens, UniProt P25774); assay: Cathepsin S Assay; settings: apparent inhibition constant; substrate Z-Val-Val-Arg-AMC, pH 6.5, 30 min incubation at room temperature; read-out: CATS (Ki)
Chain of Human cathepsin S (P25774 115-331): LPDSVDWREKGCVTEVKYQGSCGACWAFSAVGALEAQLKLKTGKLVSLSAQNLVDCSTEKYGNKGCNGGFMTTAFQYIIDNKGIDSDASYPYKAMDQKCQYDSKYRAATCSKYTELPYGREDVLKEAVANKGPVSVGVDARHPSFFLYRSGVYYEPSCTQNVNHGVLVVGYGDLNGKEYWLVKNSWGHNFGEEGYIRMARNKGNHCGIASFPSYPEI
Protocol: as §1, with “β-mercaptoethanol,” for “DTT,”, “[…].” for “0.01 %.”, “S (0.05” for “F (0.1”, “Z-Val-Val-Arg-AMC (4” for “Z-Phe-Arg-AMC (2”, “λ,” for “λ”

[4] = target: Human cathepsin L (Homo sapiens, UniProt P07711); assay: Cathepsin L Assay; settings: apparent inhibition constant; substrate Z-Phe-Arg-AMC, pH 5.5, 30 min incubation at room temperature; read-out: CATL (Ki)
Chain of Human cathepsin L (P07711 114-333): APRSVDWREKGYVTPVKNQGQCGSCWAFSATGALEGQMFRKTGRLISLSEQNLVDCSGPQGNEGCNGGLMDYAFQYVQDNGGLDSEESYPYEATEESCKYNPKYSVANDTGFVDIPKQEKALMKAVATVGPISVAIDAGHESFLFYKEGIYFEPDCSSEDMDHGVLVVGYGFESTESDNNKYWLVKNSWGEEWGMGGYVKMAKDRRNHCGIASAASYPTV
Protocol: (§2) Solutions of test compounds in varying concentrations were prepared in 10 µL of dimethyl sulfoxide (DMSO) and then diluted into assay buffer (40 µL, comprising: MES, 50 mM (pH 5.5); EDTA, 2.5 mM; and DTT, 2.5 mM). Human cathepsin L (0.05 pMoles in 25 µL of assay buffer) was added to the dilutions. The assay solutions were mixed for 5-10 seconds on a shaker plate, covered and incubated for 30 min at room temperature. Z-Phe-Arg-AMC (1 nMoles in 25 µL of assay buffer) was added to the assay solutions and hydrolysis was followed spectrophotometrically at (λ 460 nm) for 5 min. Apparent inhibition constants (Ki) were calculated from the enzyme progress curves using standard mathematical models.

[5] = target: Human cathepsin B (Homo sapiens, UniProt P07858); assay: Cathepsin B Assay; settings: apparent inhibition constant; substrate Z-FR-AMC, pH 6, 30 min incubation at room temperature; read-out: CATB (Ki)
Protocol: as §2, with “N,N-bis(2-hydroxyethyl)-2-aminoethanesulfonic acid (BES),” for “MES,”, “6); polyoxyethylenesorbitan monolaurate, 0.05%;” for “5.5); EDTA, 2.5 mM;”, “dithiothreitol (DTT),” for “DTT,”, “B (0.025” for “L (0.05”, “Z-FR-AMC (20” for “Z-Phe-Arg-AMC (1”

Chain of CATV (O60911 114-334): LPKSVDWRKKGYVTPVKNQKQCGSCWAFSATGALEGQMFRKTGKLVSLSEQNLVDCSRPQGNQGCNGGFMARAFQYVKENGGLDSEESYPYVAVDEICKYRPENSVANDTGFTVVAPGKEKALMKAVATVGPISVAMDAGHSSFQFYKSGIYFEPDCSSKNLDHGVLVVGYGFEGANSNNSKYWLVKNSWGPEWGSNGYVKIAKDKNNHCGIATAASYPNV

SMILES | Ki [1] [µM] | Ki [2] [µM] | Ki [3] [µM] | Ki [4] [µM] | Ki [5] [µM]
N#CC1(NC(=O)[C@H](CS(=O)(=O)Cc2cccnc2)NCC(F)(F)Oc2ccc(F)cc2)CC1 [A, (R)-N-(1-cyanocyclopropyl)-2-(2,2-difluoro-2-(4-fluorophenoxy)ethylamino)-3-(pyridin-3-ylmethylsulfonyl)propanamide] | < 1 | > 1 | < 0.1 | > 1 | > 1
CC#C[C@H](N[C@@H](CSCC1CC1)C(=O)NC1(C#N)CC1)C(F)(F)Oc1ccc(SC)cc1 [Compound C, (R)-N-(1-cyanocyclopropyl)-3-(cyclopropylmethylthio)-2-((S)-1,1-difluoro-1-(4-(methylthio)phenoxy)pent-3-yn-2-ylamino)propanamide] | > 1 | > 1 | < 1 | > 1 | < 0.1
CC#C[C@H](N[C@@H](CS(=O)(=O)CC1CC1)C(=O)NC1(C#N)CC1)C(F)(F)Oc1ccc(S(C)(=O)=O)cc1 [D, (R)-N-(1-cyanocyclopropyl)-3-(cyclopropylmethylsulfonyl)-2-((S)-1,1-difluoro-1-(4-(methylsulfonyl)phenoxy)pent-3-yn-2-ylamino)propanamide] | < 1 | > 1 | < 0.1 | > 1 | > 1
CC#C[C@H](N[C@@H](CSCc1ccccn1)C(=O)NC1(C#N)CC1)C(F)(F)Oc1ccc(SC)cc1 [E, (R)-N-(1-cyanocyclopropyl)-2-((S)-1,1-difluoro-1-(4-(methylthio)phenoxy)pent-3-yn-2-ylamino)-3-(pyridin-2-ylmethylthio)propanamide] | < 1 | > 1 | < 0.1 | > 1 | > 1
CC#C[C@H](N[C@@H](CSCc1cccnc1)C(=O)NC1(C#N)CC1)C(F)(F)Oc1ccc(SC)cc1 [G] | < 1 | > 1 | < 0.1 | > 1 | > 1
CC#C[C@H](N[C@@H](CS(=O)(=O)Cc1cccnc1)C(=O)NC1(C#N)CC1)C(F)(F)Oc1ccc(S(C)(=O)=O)cc1 [H, (R)-N-(1-cyanocyclopropyl)-3-((S)-1,1 1-difluoro-1-(4-(methylsulfonyl)phenoxy)pent-3-yn-2-ylamino)-2-((pyridin-3-ylmethylsulfonyl)methyl)propanamide] | < 0.1 | > 1 | < 0.1 | > 1 | > 1
CC#C[C@H](N[C@@H](CS(=O)(=O)Cc1ccc[n+]([O-])c1)C(=O)NC1(C#N)CC1)C(F)(F)Oc1ccc(S(C)(=O)=O)cc1 [I] | < 0.1 | > 1 | < 0.1 | > 1 | > 1
N#CC1(NC(=O)[C@H](CC(F)(F)CC2CC2)NCC(F)(F)Oc2ccc(F)cc2)CC1 [L, (S)-N-(1-cyanocyclopropyl)-5-cyclopropyl-2-(2,2-difluoro-2-(4-fluorophenoxy)ethylamino)-4,4-difluoropentanamide] | > 1 |  | < 1 | > 1 | > 1

More lines, now with the values ahead:

Ki [1] [µM] | Ki [2] [µM] | Ki [3] [µM] | Ki [4] [µM] | Ki [5] [µM] | SMILES
< 0.1 | < 1 | < 0.1 | < 0.1 | < 0.1 | CC[C@H](NC(=O)[C@H](CS(=O)(=O)Cc1cccnc1)NCC(F)(F)Oc1ccc(F)cc1)C(=O)C(=O)NC1CC1 [B, (S)-N-cyclopropyl-3-((R)-2-(2,2-difluoro-2-(4-fluorophenoxy)ethylamino)-3-(pyridin-3-ylmethylsulfonyl)propanamido)-2-oxopentanamide]
< 0.1 | > 1 | < 0.1 | > 1 | > 1 | CC#C[C@H](N[C@@H](CS(=O)(=O)Cc1ccccn1)C(=O)NC1(C#N)CC1)C(F)(F)Oc1ccc(S(C)(=O)=O)cc1 [F, (R)-N-(1-cyanocyclopropyl)-2-((S)-1,1-difluoro-1-(4-(methylsulfonyl)phenoxy)pent-3-yn-2-ylamino)-3-(pyridin-2-ylmethylsulfonyl)propanamide]
< 0.1 | < 1 | < 0.1 | < 1 | < 0.1 | CC[C@H](NC(=O)[C@H](CS(=O)(=O)CC1CC1)NCC(F)(F)Oc1ccc(F)cc1)C(=O)C(=O)NC1CC1 [J, (S)-N-cyclopropyl-3-((R)-3-(cyclopropylmethylsulfonyl)-2-(2,2-difluoro-2-(4-fluorophenoxy)ethylamino)propanamido)-2-oxopentanamide]
< 0.1 |  | < 0.1 | < 0.1 | < 1 | CC[C@H](NC(=O)[C@H](CC(F)(F)CC1CC1)NCC(F)(F)Oc1ccc(F)cc1)C(=O)C(=O)NC1CC1 [K, (S)-5-cyclopropyl-N-((S)-1-(cyclopropylamino)-1,2-dioxopentan-3-yl)-2-(2,2-difluoro-2-(4-fluorophenoxy)ethylamino)-4,4-difluoropentanamide]
